The record followed here is patent US20240400571A1, “5,6 UNSATURATED BICYCLIC HETEROCYLES USEFUL AS INHIBITORS OF NOD-LIKE RECEPTOR PROTEIN 3” (Merck Sharp & Dohme LLC, priority 2023, published 2024).

The target in the test is T1, NLRP3 inflammasome (Homo sapiens, UniProt Q96P20).
T1 construct: host or cells: THP-1 human monocytic cells, treated with PMA and stimulated with gramicidin
T1 sequence (Q96P20 whole entry): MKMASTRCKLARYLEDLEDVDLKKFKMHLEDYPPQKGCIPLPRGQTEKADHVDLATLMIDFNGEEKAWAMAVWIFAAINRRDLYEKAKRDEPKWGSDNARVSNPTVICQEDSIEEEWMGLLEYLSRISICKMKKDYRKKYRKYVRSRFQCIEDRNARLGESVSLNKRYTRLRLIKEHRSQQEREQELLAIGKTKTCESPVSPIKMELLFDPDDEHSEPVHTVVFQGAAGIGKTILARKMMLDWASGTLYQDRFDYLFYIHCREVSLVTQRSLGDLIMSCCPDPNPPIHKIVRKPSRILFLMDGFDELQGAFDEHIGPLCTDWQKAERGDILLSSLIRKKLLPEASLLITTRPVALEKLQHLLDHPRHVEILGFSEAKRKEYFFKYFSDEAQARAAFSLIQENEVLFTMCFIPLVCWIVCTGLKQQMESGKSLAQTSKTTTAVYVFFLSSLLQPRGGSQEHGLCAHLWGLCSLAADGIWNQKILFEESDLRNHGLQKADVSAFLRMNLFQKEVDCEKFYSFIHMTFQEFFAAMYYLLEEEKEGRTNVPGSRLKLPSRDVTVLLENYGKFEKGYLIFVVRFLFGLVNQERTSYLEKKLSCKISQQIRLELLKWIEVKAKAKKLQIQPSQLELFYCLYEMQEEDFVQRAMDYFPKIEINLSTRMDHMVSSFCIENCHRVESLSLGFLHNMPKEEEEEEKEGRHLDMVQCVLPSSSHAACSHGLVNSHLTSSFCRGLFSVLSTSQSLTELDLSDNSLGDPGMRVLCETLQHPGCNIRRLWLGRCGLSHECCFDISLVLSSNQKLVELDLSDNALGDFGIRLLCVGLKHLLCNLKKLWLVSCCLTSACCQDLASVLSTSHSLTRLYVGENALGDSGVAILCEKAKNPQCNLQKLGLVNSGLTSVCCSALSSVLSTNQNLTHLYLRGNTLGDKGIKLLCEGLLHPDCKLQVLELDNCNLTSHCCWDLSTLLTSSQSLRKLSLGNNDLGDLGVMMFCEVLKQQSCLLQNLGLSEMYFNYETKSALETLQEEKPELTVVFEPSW
The test can be described thus: ASC-SPECK formation in THP-1 cells after gramicidin stimulation (NLRP3 inflammasome activation). It counts as cell-based. The conditions noted are these: PMA-treated human monocytic THP-1 cells; compound 1 h before 12.5 μg/ml gramicidin, 3-hour treatment; ASC SPECK imaging; read-out: EC50 values (nM) for Examples that inhibit NLRP3 inflammasome activation. The procedure:
The ability of compounds to inhibit NLRP3 inflammasome activation was determined in vitro by monitoring formation of the ASC-SPECK in human monocytic THP-1 cells after stimulation. THP-1 cells (ATCC catalog #TIB-202) were maintained in complete growth media containing Roswell Park Memorial Institute RPMI (ATCC catalog #30-2001), 10% heat inactivated fetal bovine serum, 1× penicillin/streptomycin and 0.05 mM 2-mercaptoethanol. At the start of the assay, undifferentiated THP-1 cells were plated at a density of 20,000 cells per well in a 384-well plate (Poly-D-lysine coated Cell Carrier Ultra microplate, Perkin Elmer catalog #6057500) in complete growth media supplemented with 10 ng/ml phorbol 12-myristate 13-acetate (PMA; Sigma catalog #P8139), and then incubated overnight. The next day, media was replaced with assay media [RPMI (Gibco catalog #11875-093), 0.01% bovine serum albumin (BSA)]. Compounds were serially diluted in DMSO and then added to wells one hour prior to the addition of 12.5 μg/ml Gramicidin (Enzo Lifescience, catalog #ALX-350-233-M005). All incubations were carried out at 37° C. (5% CO2/95% air). Following a 3-hour treatment with gramicidin, cells are fixed with 4% paraformaldehyde and stored at 4° C. until immunofluorescence staining.
Immunofluorescence staining: Anti-ASC antibody (MBL catalog #D086-3) was desalted and labeled with Alexa 488 antibody labeling kit (Thermo catalog #A20181) prior to use as described below. After fixation, the following steps were carried out at room temperature. Cells were first permeabilized with 0.3% Triton X-100 in phosphate-buffered saline (PBS) for 15 minutes and then incubated in blocking buffer containing 5% goat serum, 0.3% tween-20 and 0.03% sodium azide in PBS for 1 hour. Cells were stained with a mixture of ASC-Alexa 488 antibody (diluted 1:200 in blocking buffer) and nuclear stain DRAQ5 (1:5000 in blocking buffer, Thermo catalog #62251) in blocking buffer for 1 hour. Following a wash with 0.3% Tween-20 in PBS, plates were imaged with an Opera Phenix High Content Screening System. The number of DRAQ5 positive cells containing ASC SPECKS were quantified in each well.
Data analysis: EC50 values were calculated by standard curve-fitting analysis using an internally developed program in TIBCO Spotfire software.
For orientation: EC50 means the concentration needed to bring the measured effect to its halfway point. Regarding `Cc1c(-c2ccc3c(c2O)CCC3)nnc2c1ncn2[C@@H]1CCCNC1` [Example 19, (R)-5-(4-methyl-7-(piperidin-3-yl)-7H-imidazo[4,5-c]pyridazin-3-yl)-2,3-dihydro-1H-inden-4-ol], the EC50 was 53 nM.

As to `Cc1c(-c2ccc(C3CC3)c(F)c2O)nnc2c1ncn2[C@@H]1CCCN(C)C1` [Example 27, (R)-3-cyclopropyl-2-fluoro-6-(4-methyl-7-(1-methylpiperidin-3-yl)-7H-imidazo-[4,5-c]pyridazin-3-yl)phenol], the EC50 worked out at 1530 nM.

On to `CCN1CCC[C@@H](n2cnc3c(C)c(-c4ccc(C(F)(F)F)cc4OC(F)F)nnc32)C1` [Example 9, (R)-3-(2-(difluoromethoxy)-4-(trifluoromethyl)phenyl)-7-(1-ethylpiperidin-3-yl)-4-methyl-7H-imidazo[4,5-c]pyridazine], for which the EC50 was determined as 699 nM.

On to `Cc1ccc(-c2nnc3c(ncn3[C@@H]3CCCN(C)C3)c2C)c(O)c1F` [Example 20, (R)-2-fluoro-3-methyl-6-(4-methyl-7-(1-methylpiperidin-3-yl)-7H-imidazo[4,5-c]pyridazin-3-yl)phenol], for which the EC50 stood at 84 nM.

In the case of `Cc1c(-c2ccc(C(F)(F)F)cc2O)nnc2c1ncn2[C@@H]1CCCN(C2CCC2)C1` [Example 23, (R)-2-(7-(1-cyclobutylpiperidin-3-yl)-4-methyl-7H-imidazo[4,5-c]pyridazin-3-yl)-5-(trifluoromethyl)phenol], the EC50 was 112 nM.

`Cc1cc(C(F)(F)F)cc(O)c1-c1cc2ncn(C3CCCN(C)C3)c2nn1` (racemic) [Example 4, (R and S)-3-methyl-2-(7-(1-methylpiperidin-3-yl)-7H-imidazo[4,5-c]pyridazin-3-yl)-5-(trifluoromethyl)phenol]: the EC50 came to 91 nM.

`Cc1c(-c2ccc(Cl)cc2O)nnc2c1ncn2[C@@H]1CCCNC1` [Example 13, (R)-5-chloro-2-(4-methyl-7-(piperidin-3-yl)-7H-imidazo[4,5-c]pyridazin-3-yl)phenol]: the EC50 amounted to 320 nM.

Consider `Cc1c(-c2ccc(C(F)(F)F)cc2O)nnc2c1ncn2[C@H]1CC[C@H]2CC[C@@H]1N2C` (single isomer, unassigned) [Example 28], for which the EC50 amounted to 1410 nM.

In the case of `Cc1c(-c2ccc(C(F)(F)F)cc2O)nnc2c1ncn2[C@@H]1CC[C@@H]2CC[C@H]1N2` (single isomer, unassigned) [Example 24], the EC50 amounted to 130 nM.

Turning to `CCN1CCC[C@@H](n2cnc3cc(-c4c(C)cc(C(F)(F)F)cc4O)nnc32)C1` [Example 3, (R)-2-(7-(1-ethylpiperidin-3-yl)-7H-imidazo[4,5-c]pyridazin-3-yl)-3-methyl-5-(trifluoromethyl)phenol], the EC50 was 21 nM.

Consider `Cc1c(-c2ccc(C(F)(F)F)cc2O)nnc2c1ncn2C12CCCC(N)(C1)C2` [Example 32, 2-(7-(5-aminobicyclo[3.1.1]heptan-1-yl)-4-methyl-7H-imidazo[4,5-c]pyridazin-3-yl)-5-(trifluoromethyl)phenol], for which the EC50 is 47 nM.

Regarding `Cc1c(-c2ccc(C(F)(F)F)cc2O)nnc2c1ncn2[C@@H]1CCCN2CCC[C@@H]12` (single isomer, unassigned) [Example 34], the concentration giving a half-maximal response (EC50) turned out to be 87 nM.

For the compound `Cc1c(-c2ccc(C(F)(F)F)cc2O)nnc2c1ncn2[C@@H]1CCCN(C)C1` [Example 10, (R)-2-(4-methyl-7-(1-methylpiperidin-3-yl)-7H-imidazo[4,5-c]pyridazin-3-yl)-5-(trifluoromethyl)phenol], the EC50 was found to be 25 nM.

For `Cc1c(-c2ccc3sccc3c2O)nnc2c1ncn2[C@@H]1CCCN(C)C1` [Example 15, (R)-5-(4-methyl-7-(1-methylpiperidin-3-yl)-7H-imidazo[4,5-c]pyridazin-3-yl)benzo[b]thiophen-4-ol], the EC50 was 61 nM.

Take `CCN1CCC[C@@H](n2cnc3c(C)c(-c4ccc(C(F)(F)F)cc4O)nnc32)C1` [Example 7, (R)-2-(7-(1-ethylpiperidin-3-yl)-4-methyl-7H-imidazo[4,5-c]pyridazin-3-yl)-5-(trifluoromethyl)phenol]: the EC50 came out at 13 nM.
